The source made the active and inactive calls. No rule for the calls is given here.

Broadly, the IC50 is the concentration at which inhibition is half-maximal.

The assay in a line: mitochondrial fusion inhibitors, confirmation, cell-based, chemical genetic, wild-type and mutant (AID 1361). To be noted: Cell-based mitochondrial fusion phenotype, imaging.
Setting [1] is: mutant cells, measured here: mutant cell line IC50.

With `Cc1ccc(-n2cccc2/C=C2\C(=N)N3N=C(C(C)C)SC3=NC2=O)cc1`, the IC50 is 10.6 µM (WT cells) and greater than 25 µM under setting [1].

With `Cc1cc(N/N=C/c2ccc(O)c(C)c2O)nc(-c2ccccc2O)n1`, the IC50 runs as follows: (WT cells) > 25 µM (inactive); under setting [1], greater than 25 µM.

As for `COCCn1c(CN2CCC(Cc3ccccc3)CC2)nc2c1c(=O)n(C)c(=O)n2C`, the IC50 is, setting by setting: (WT cells) > 25 µM (inactive); under setting [1], greater than 25 µM.

For `COc1ccc(C(=O)NN(C)c2nc(-c3ccccc3)nnc2C(F)(F)F)cc1`, the IC50 (WT cells) was > 25 µM (inactive) and the IC50 under setting [1] was greater than 25 µM.

Consider `CCCCCC(=O)Nc1cc(N(C)C)nc2ccccc12`, for which the IC50 was > 25 µM (inactive) (WT cells) and greater than 25 µM under setting [1].

As to `COc1ccc(OC)c(S(=O)(=O)Nc2ccc(Oc3ccccc3)cc2)c1`, the IC50 (WT cells) is > 25 µM (inactive) and the IC50 under setting [1] is greater than 25 µM.

For the molecule `CN1CCN(CCCNC(=O)c2ccc(/C=C3/Sc4ccccc4N(Cc4cccc(Cl)c4)C3=O)cc2)CC1`, the IC50 reads like this: (WT cells) 12.1 µM; under setting [1], greater than 12.5 µM.

Regarding `COC(=O)C1=C(Nc2ccc(C)cc2)C=C(C)C(C(=O)OC)C1c1ccc(F)cc1` (centres undefined), the IC50 is, setting by setting: (WT cells) 6.62 µM; under setting [1], greater than 25 µM.

Take `Cc1nnc(NC(=O)c2sc3nc(-c4cccs4)cc(C(F)(F)F)c3c2N)s1`: the IC50 was > 25 µM (inactive) (WT cells) and greater than 25 µM under setting [1].

Consider `COc1ccccc1-n1cnc2sc(-c3ccccc3)cc2c1=O`, for which the IC50 is > 25 µM (inactive) (WT cells) and greater than 25 µM under setting [1].

For the molecule `CCOC(=O)C1=C(C)NC(C)=C(C(=O)OC)C1c1cccc(Cl)c1Cl` (centres undefined), the IC50 was 20.4 µM (WT cells) and greater than 25 µM under setting [1].

With `C[C@]1(C(=O)NCCCNc2ncc(C(F)(F)F)cc2Cl)C=C[C@@H](Cc2ccccc2)N1C(=O)c1ccccc1`, the IC50 was 11.9 µM (WT cells) and greater than 25 µM under setting [1].

For the molecule `CC(C)(C)C1CCc2c(sc(NC(=O)CSc3ncn[nH]3)c2C#N)C1` (centres undefined), the IC50 by setting is: (WT cells) 15.8 µM; under setting [1], greater than 25 µM.

`Cc1sc(NC(=O)c2ccco2)c(C(c2ccc(F)cc2)N2CCN(C)CC2)c1C` (centres undefined): the IC50 (WT cells) was 14.4 µM (inactive) and the IC50 under setting [1] is greater than 12.5 µM.

Take `CCCNC(=O)c1ccccc1NC(=O)CSCc1ccc(OC)cc1`: the IC50 is > 25 µM (inactive) (WT cells) and greater than 25 µM under setting [1].

Take `Cc1ccc(C(C(=O)NCC2CCCO2)N(Cc2ccccc2)C(=O)c2ccc(-c3ccccc3)[nH]2)o1` (centres undefined): the IC50 was 10.9 µM (WT cells) and greater than 25 µM under setting [1].

Consider `CCC(C(=O)OCC(=O)Nc1ccc(SC(F)F)cc1)c1ccccc1` (centres undefined), for which the IC50 (WT cells) was 17.6 µM and the IC50 under setting [1] is greater than 25 µM.

For the molecule `Cc1ccc(NC(=S)N(Cc2ccc(Br)cc2)Cc2ccc(C(=O)O)cc2)cc1C`, the IC50 is > 25 µM (inactive) (WT cells) and greater than 25 µM under setting [1].

As to `O=C(Nc1ccc(Cl)c(Cl)c1)c1ccc(Cn2cc(Cl)cn2)cc1`, the IC50 is, setting by setting: (WT cells) 8.52 µM; under setting [1], 18.6 µM.

Consider `CC1CC(C)(C)N2C(=O)C3(Nc4ccccc4S3)c3cccc1c32` (centres undefined), for which the IC50 (WT cells) is > 25 µM (inactive) and the IC50 under setting [1] is greater than 25 µM.

Regarding `CC12CC3(C)CC(C)(C1)CC(C(=O)NC(=S)NC(C)(C)C)(C2)C3`, the IC50 (WT cells) is 11.6 µM and the IC50 under setting [1] is greater than 25 µM.

Turning to `Cc1cc2c3c(c1)C1(SCC(=O)N1c1ccc(F)cc1)C(=O)N3C(C)(C)CC2C` (centres undefined), the IC50 runs as follows: (WT cells) > 25 µM (inactive); under setting [1], greater than 25 µM.

Consider `CCOc1ccccc1NC(C)C(=O)Nc1cc(C(F)(F)F)ccc1N1CCOCC1` (centres undefined), for which the IC50 is 19 µM (WT cells) and 22.2 µM under setting [1].

For the molecule `CC(C)Oc1ccc(C(=O)NC2(C(F)(F)F)NC(=O)N(CCCc3ccccc3)C2=O)cc1` (centres undefined), the half-inhibitory concentration (IC50) is 20.2 µM (WT cells) and greater than 25 µM under setting [1].

Turning to `O=C(/C(=N\O)n1cncn1)c1ccc(Br)cc1Br`, the IC50 was > 25 µM (inactive) (WT cells) and greater than 25 µM under setting [1].

As to `CC1CN(C(=O)N(C)C)CCN1C(=O)N(C)C` (centres undefined), the IC50 is, setting by setting: (WT cells) > 25 µM (inactive); under setting [1], greater than 25 µM.

As to `Cc1oc(-c2ccccc2Cl)nc1CN1C(=O)CN=C(c2ccccc2)c2ccccc21`, the IC50 was 20.5 µM (WT cells) and greater than 25 µM under setting [1].

In the case of `CCOc1ccc(NC(=O)CSc2nnc(-c3ccco3)n2C)cc1`, the IC50 by setting is: (WT cells) > 25 µM (inactive); under setting [1], greater than 25 µM.

Regarding `Cc1nc(NC2=NCN(C3CCCCC3C)CN2)nc2ccccc12` (centres undefined), the IC50 by setting is: (WT cells) > 25 µM (inactive); under setting [1], greater than 25 µM.

Take `C/C(=N\N1CCCCC1c1cccnc1)c1c(O)n(C2CCCCC2)c(=S)[nH]c1=O` (centres undefined): the IC50 reads like this: (WT cells) > 25 µM (inactive); under setting [1], greater than 25 µM.

Consider `CC(C)c1ccc(OCc2nc(-c3ccccn3)no2)c(Br)c1`, for which the IC50 by setting is: (WT cells) 15.6 µM; under setting [1], 20.8 µM.

As for `Cc1ccc(NC(=O)C2(c3ccccc3)CC2(Cl)Cl)cc1C` (centres undefined), the IC50 (WT cells) is > 25 µM (inactive) and the IC50 under setting [1] is greater than 25 µM.

For `N#Cc1sc2nc(N3CCCCC3)c3c(c2c1N)CCCC3`, the IC50 runs as follows: (WT cells) 20.2 µM; under setting [1], greater than 25 µM.

`CCC(C)c1ccccc1NC(=O)COC(=O)c1ccc2[nH]c3c(c2c1)CCCC3` (centres undefined): the IC50 (WT cells) is 9.98 µM and the IC50 under setting [1] is greater than 25 µM.

On to `CCOc1ccccc1NC(=O)NC(=O)N(C)S(=O)(=O)c1ccc(C)cc1`, for which the IC50 (WT cells) is > 25 µM (inactive) and the IC50 under setting [1] is greater than 25 µM.

With `O=C(c1ccc(C(F)(F)F)cc1)N1CCC(=O)N(C(COCc2ccc(Cl)cc2)Cc2ccccc2)CC1` (centres undefined), the IC50 reads like this: (WT cells) 19.1 µM; under setting [1], greater than 25 µM.

As for `Oc1ccc(/C=N/Nc2nc(N3CCCCCC3)nc(N3CCCCCC3)n2)c(O)c1`, the IC50 was 9.5 µM (WT cells) and greater than 25 µM under setting [1].

As for `CCOP(=O)(OCC)C(Nc1cccc(C(F)(F)F)c1)c1ccc(Br)cc1` (centres undefined), the IC50 is 16.3 µM (WT cells) and greater than 25 µM under setting [1].

Take `CSc1nc2ccc(NS(=O)(=O)c3c(Cl)cccc3Cl)cc2s1`: the IC50 is, setting by setting: (WT cells) 19.3 µM; under setting [1], greater than 25 µM.

As for `CC(C)SCc1cc(N2CCCC2)nc(-c2ccccc2)n1`, the IC50 is, setting by setting: (WT cells) 23.5 µM; under setting [1], greater than 25 µM.

Take `C/C(CCN1CCc2nc(-c3ccccc3)c(-c3ccccc3)cc2C1)=N\OC[C@@H](C)[C@H](OCc1ccccc1)C(C)C`: the IC50 is > 25 µM (inactive) (WT cells) and greater than 25 µM under setting [1].

Turning to `CC1Cc2ccccc2N1C(=O)Cn1c(=O)cc(O)c2ccccc21` (centres undefined), the IC50 is, setting by setting: (WT cells) > 25 µM (inactive); under setting [1], greater than 25 µM.

`O=C(Nc1ccc(F)cc1)N1CC2CC(C1)c1cccc(=O)n1C2` (centres undefined): the IC50 (WT cells) was > 25 µM (inactive) and the IC50 under setting [1] is greater than 25 µM.

In the case of `CCOC(=O)c1c(NC(=O)CN2CCN(C(=O)c3ccco3)CC2)sc2c1CCCC2`, the IC50 (WT cells) is 23.2 µM and the IC50 under setting [1] was greater than 25 µM.

As to `O=C(OCc1csc(Nc2ccccc2)n1)c1ccc(Cl)cc1`, the IC50 (WT cells) is 10.1 µM and the IC50 under setting [1] came to 17.6 µM.

Consider `CCOC(=O)C1=NN(c2ccccc2)C2=NC(C)=C(C(=O)OC)C(c3ccc(C)cc3)N12` (centres undefined), for which the half-maximal inhibitory concentration (IC50) (WT cells) is 8.75 µM and the IC50 under setting [1] was greater than 25 µM.

`CCCCOC(=O)Nc1cccc(C(=O)OCC)c1`: the IC50 runs as follows: (WT cells) > 25 µM (inactive); under setting [1], greater than 25 µM.

For the molecule `CC(C)Nc1nc(Oc2cccc(Cl)c2Cl)cc(C(F)(F)F)n1`, the IC50 was 23.6 µM (WT cells) and greater than 25 µM under setting [1].

For the molecule `CC1CC2=C(NC(=S)NC2c2cccc(F)c2)/C(=C/c2cccc(F)c2)C1` (centres undefined), the IC50 reads like this: (WT cells) 8.15 µM; under setting [1], greater than 25 µM.

`O=C(NCc1ccccc1)c1ccc(-c2ccccc2C(F)(F)F)o1`: the IC50 runs as follows: (WT cells) > 25 µM (inactive); under setting [1], greater than 25 µM.

With `CCCCCC(=O)O[C@]1(C(C)=O)CC[C@H]2[C@@H]3CCC4=CC(=O)CC[C@]4(C)[C@H]3CC[C@@]21C`, the IC50 is, setting by setting: (WT cells) 12.7 µM; under setting [1], greater than 25 µM.

On to `COc1ccc(-c2cc3nc(-c4ccccc4)cc(N4CCC(O)CC4)n3n2)cc1`, for which the IC50 by setting is: (WT cells) > 25 µM (inactive); under setting [1], greater than 25 µM.

As to `COc1ccccc1C(=O)NC(=S)/C=C1/N(C)c2ccccc2C1(C)C`, the IC50 reads like this: (WT cells) 10.8 µM; under setting [1], greater than 25 µM.

For the molecule `CC1CC(C)CN(c2ncnc3c2cnn3Cc2ccc(Cl)cc2)C1` (centres undefined), the IC50 runs as follows: (WT cells) 12.8 µM; under setting [1], 17.9 µM.

As for `CCOC(=O)c1c(C)[nH]c(C(=O)OCC(=O)Nc2cc(Cl)ccc2OC)c1C`, the IC50 reads like this: (WT cells) > 25 µM (inactive); under setting [1], greater than 25 µM.

For the molecule `N#CC(C#N)=c1ccc2c(c1)N1C3=C(CCCC3)CC3CCCCC31N=2` (centres undefined), the IC50 runs as follows: (WT cells) 3.41 µM; under setting [1], 7.81 µM.

Regarding `COc1ccccc1NC(=O)CC1S/C(=N/N=C2\CCCc3ccccc32)NC1=O` (centres undefined), the IC50 (WT cells) was 19.6 µM and the IC50 under setting [1] was greater than 25 µM.

For the molecule `COc1ccc(C(=NNc2ccccc2C(=O)O)c2ccc(OC)cc2)cc1`, the IC50 is 17.8 µM (WT cells) and greater than 25 µM under setting [1].

Regarding `Cc1ccc(Nc2ccc(C(=O)O)cc2N)cc1`, the IC50 is > 25 µM (inactive) (WT cells) and greater than 25 µM under setting [1].

In the case of `Cc1ccc(NNC(=O)C(O)(c2cccc(C(F)(F)F)c2)c2cccc(C(F)(F)F)c2)cc1`, the IC50 runs as follows: (WT cells) 22.3 µM; under setting [1], greater than 25 µM.

Take `Cc1ccccc1OCC(=O)Nc1ccccc1N1CCC(C)CC1`: the IC50 is 16.1 µM (WT cells) and greater than 25 µM under setting [1].

As for `COC(=O)CNC(c1ccccc1)c1cc(Cl)ccc1NC(=O)c1cccc(Cl)c1` (centres undefined), the IC50 reads like this: (WT cells) 10.4 µM; under setting [1], greater than 25 µM.

Regarding `Cc1cccc(NC(=S)N/N=C/c2ccc3c(c2)OCO3)c1`, the IC50 was > 25 µM (inactive) (WT cells) and greater than 25 µM under setting [1].

Turning to `S=C(NCCNCc1ccccc1)NC1CCCCC1`, the IC50 was 13.6 µM (WT cells) and greater than 25 µM under setting [1].

For the molecule `Cc1cc(N2C(=O)C=CC2=O)c([N+](=O)[O-])cc1C`, the IC50 runs as follows: (WT cells) > 25 µM (inactive); under setting [1], greater than 25 µM.

For `Cc1cc(C)c2nc(C(F)(F)F)nc(N3CC(C)OC(C)C3)c2c1` (centres undefined), the IC50 is > 25 µM (inactive) (WT cells) and greater than 25 µM under setting [1].

Turning to `CN1/C(=C\C=Nc2ccc3ccccc3c2)C(C)(C)c2ccccc21`, the IC50 reads like this: (WT cells) > 25 µM (inactive); under setting [1], 21.8 µM.

Values taken from PubChem BioAssay AID1361 (SRMLSC, 2008).
